Measurements taken from US11084826B2, “RSV antiviral pyrazolo- and triazolo-pyrimidine compounds” (Janssen Sciences Ireland Unlimited Company, priority 2015, dated 2021).

How the values were obtained:
[1] = Cytotoxicity in HeLa cells, ATP content measured with the ATPlite kit; assay type: cell-based; details: human, TOX HELA pCC50
Method: (§1) Black 384-well clear-bottom microtiter plates (Corning, Amsterdam, The Netherlands) were filled via acoustic drop ejection using the echo liquid handler (Labcyte, Sunnyvale, Calif.). 200 nL of compound stock solutions (100% DMSO) were transferred to the assay plates. 9 serial 4-fold dilutions of compound were made, creating per quadrant the same compound concentration. The assay was initiated by adding 10 μL of culture medium to each well (RPMI medium without phenol red, 10% FBS-heat inactivated, 0.04% gentamycin (50 mg/mL). All addition steps are done by using a multidrop dispenser (Thermo Scientific, Erembodegem, Belgium). Next, rgRSV224 virus (MOI=1) diluted in culture medium was added to the plates. rgRSV224 virus is an engineered virus that includes an additional GFP gene (Hallak LK, Spillmann D, Collins PL, Peeples Me. Glycosaminoglycan sulfation requirements for respiratory syncytial virus infection; Journal of virology (2000), 74(22), 10508-13) and was in-licensed from the NIH (Bethesda, Md., USA). Finally, 20 μL of a HeLa cell suspension (3,000 cells/well) were plated. Medium, virus- and mock-infected controls were included in each test. The wells contain 0.05% DMSO per volume. Cells were incubated at 37° C. in a 5% CO2 atmosphere. Three days post-virus exposure, viral replication was quantified by measuring GFP expression in the cells by an in house developed MSM laser microscope (Tibotec, Beerse, Belgium). The EC50 was defined as the 50% inhibitory concentration for GFP expression. In parallel, compounds were incubated for three days in a set of white 384-well microtiter plates (Corning) and the cytotoxicity of compounds in HeLa cells was determined by measuring the ATP content of the cells using the ATPlite kit (Perkin Elmer, Zaventem, Belgium) according to the manufacturer's instructions. The CC50 was defined as the 50% concentration for cytotoxicity.

rgRSV224 virus = assay: Antiviral activity: inhibition of rgRSV224 (GFP-expressing RSV) replication in HeLa cells, GFP expression read-out; assay type: cell-based, respiratory syncytial virus (RSV); details: human respiratory syncytial virus, HeLa, read-out: RSV HELA pEC50, rgRSV224 virus (MOI=1) in HeLa cells, GFP read-out (converted)
Method: as §1

Row | Compound | CC50 at 3 days [1] | melting point | EC50 (rgRSV224 virus)
1 | C[C@@H]1CCCCCN1C(=O)c1cc(C2(C)CC2)n2nc(-c3ccc4cc(C(=O)O)c(=O)oc4c3F)cc2n1 (racemic) [Compound F49] | 57500 nM | 218.14 °C | 26.3 nM
2 | CCc1cc(C(=O)N2CCCCCC2C)nc2cc(-c3ccc(CO)cc3)nn12 (stereo not drawn) [Compound A21] | > 100000 nM | 155 to 160 °C | 891 nM
3 | C[C@@H]1CCCCCN1C(=O)c1cc(C2CC2)n2nc(-c3ccc(-n4cc(C(=O)O)cn4)cc3F)cc2n1 [Compound W8] | 55000 nM | 232.32 °C | 77.6 nM
4 | C[C@@H]1CCCCCN1C(=O)c1cc(C2CC2)n2nc(-c3ccc(C4C[C@H]4C(=O)O)cc3F)cc2n1 (single isomer, unassigned) [Compound O7] | 45700 nM | 245.75 °C | 39.8 nM
5 | C[C@@H]1CCCCCN1C(=O)c1cc(C2(C)CC2)n2nc(-c3ccc4c(c3F)OCC(C(=O)O)=C4)cc2n1 (racemic) [Compound F51] | 57500 nM | 261.88 °C | 27.5 nM
6 | CCc1cc(C(=O)N2CCCCCC2C)nc2cc(-c3ccc(NC(=O)NC4CC4)cc3)nn12 (stereo not drawn) [Compound B8] | 17000 nM | 240 to 245 °C | 240 nM
7 | CCc1cc(C(=O)N2CCCCC[C@H]2C)nc2cc(-c3ccc(C(N)=O)cc3)nn12 [Compound A26] | > 25100 nM | 160 to 165 °C | 195 nM
8 | C[C@@H]1CCCCCN1C(=O)c1cc(C2(C)COC2)n2nc(-c3ccc(-n4cc(C(=O)O)cn4)cc3F)cc2n1 (racemic) [Compound W36] | > 25100 nM | 223.2 °C | 151 nM
9 | CCc1cc(C(=O)N2CCCCC[C@H]2C)nc2cc(-c3ccc(N4C[C@@H]5CC(C(=O)O)=C[C@@H]5C4)cc3F)nn12 [Compound W12] | 63100 nM | 252.19 °C | 204 nM
10 | C[C@@H]1CCCCCN1C(=O)c1cc(C2(C)CC2)n2nc(-c3ccc(-n4cc(C(=O)O)cn4)cc3F)cc2n1 [Compound W10] | 52500 nM | 239.85 °C | 30.9 nM
11 | C[C@@H]1CCCCCN1C(=O)c1cc(C2(C)CC2)n2nc(-c3ccc(C4C[C@H]4C(=O)O)cc3F)cc2n1 (mixture of isomers) [Compound O10] | 45700 nM | 333.75 °C | 28.8 nM
12 | CCc1cc(C(=O)N2CC(C)(C)c3ccccc3C2C)nc2cc(-c3ccc(C(=O)O)cc3F)nn12 (stereo not drawn) [Compound K6] | > 25100 nM | 235 to 240 °C | 2400 nM
13 | CCc1cc(C(=O)N2Cc3ccccc3CC2C)nc2cc(-c3ccc(C(=O)O)cc3F)nn12 (stereo not drawn) [Compound K3] | > 25100 nM | 150 to 155 °C | 1100 nM
14 | CCc1cc(C(=O)N2CCc3sccc3[C@H]2C)nc2cc(-c3cccc(/C=C/C(=O)O)c3F)nn12 (single isomer, unassigned) [Compound M49] | 41700 nM | 262.19 °C | 10 nM
15 | CCOc1cc(C(=O)N2CCCCC[C@H]2C)nc2cc(-c3ccc(/C=C/C(=O)O)cc3F)nn12 [Compound M24] | > 100000 nM | 213.66 °C | 380 nM
16 | CCc1cc(C(=O)N2CCCCC[C@H]2C)nc2cc(-c3ccc(N4CC=C(C(=O)O)CC4)cc3F)nn12 [Compound W11] | 58900 nM | 277.45 °C | 234 nM
17 | CCc1cc(C(=O)N2CCc3sccc3[C@H]2C)nc2cc(-c3ccc4c(c3F)OCC(C(=O)O)=C4)nn12 (racemic) [Compound F66] | 15500 nM | 256.54 °C | 7.08 nM
18 | C[C@@H]1CCCCCN1C(=O)c1cc(C2(C)CC2)n2nc(-c3cccc([C@H]4C[C@@H]4C(=O)O)c3F)cc2n1 (racemic) [Compound O9] | 89100 nM |  | 110 nM
19 | C[C@@H]1c2ccccc2CCN1C(=O)c1cc(C2CC2)n2nc(-c3cccc(/C=C/C(=O)O)c3F)cc2n1 [Compound M27] |  | 202.04 °C | 11.7 nM

Row | Compound | CC50 at 3 days [1] | melting point | EC50 (rgRSV224 virus)
20 | CCc1cc(C(=O)N2CCCCCC2C)nc2cc(-c3ccc(/C=C(\C)C(=O)O)cc3F)nn12 (stereo not drawn) [Compound M13] | > 25100 nM |  | 224 nM
21 | CCc1cc(C(=O)N2CCCCC[C@H]2C)nc2cc(-c3ccc(N(C)CC(=O)O)cc3F)nn12 [Compound W19] | > 100000 nM |  | 263 nM
22 | C[C@@H]1c2ccccc2CCN1C(=O)c1cc(N2CCCC2)n2nc(-c3ccc(/C=C/C(=O)O)cc3F)cc2n1 [Compound M16] | 16600 nM |  | 13.2 nM
23 | CCc1cc(C(=O)N2CCCCC[C@H]2C)nc2cc(-c3ccc(-c4cnc(C(=O)O)c(F)c4)cc3F)nn12 [Compound F19] | 36300 nM |  | 97.7 nM
24 | C[C@@H]1c2ccccc2CCN1C(=O)c1cc(C2(C)CC2)n2nc(-c3ccc(C4C[C@H]4C(=O)O)cc3F)cc2n1 (mixture of isomers) [Compound O8] | 49000 nM |  | 11.7 nM
25 | CCc1cc(C(=O)N2CCCCC[C@H]2C)nc2cc(-c3ccc(C4C[C@H]4C(=O)O)cc3F)nn12 (single isomer, unassigned) [Compound O2] | > 25100 nM |  | 58.9 nM
26 | CCc1cc(C(=O)N2CCCCC[C@H]2C)nc2cc(-c3ccc(-n4cnc(C(=O)O)c4)cc3F)nn12 [Compound W29] | > 100000 nM |  | 363 nM
27 | CNc1cc(C(=O)N2CCc3ccccc3[C@H]2C)nc2cc(-c3ccc(/C=C/C(=O)O)cc3F)nn12 [Compound M14] | 15800 nM |  | 24 nM
28 | CCCCC(C)N(C)C(=O)c1cc(CC)n2nc(-c3ccccc3F)cc2n1 (stereo not drawn) [Compound A17] | 40700 nM |  | 1510 nM
29 | CCCCc1nc(Cl)c(-c2cc3nc(C(=O)N4CCCCCC4C)cc(CC)n3n2)[nH]1 (stereo not drawn) [Compound A22] | > 25100 nM |  | 603 nM
30 | CCc1cc(C(=O)N2CCCCC[C@H]2C)nc2cc(-c3ccc(NC4(C(=O)O)CC4)cc3F)nn12 [Compound W16] | > 100000 nM |  | 269 nM
31 | CCc1cc(C(=O)N2CCCCCC2C)nc2cc(-c3ccc(-c4cncn4C)cc3F)nn12 (stereo not drawn) [Compound F13] | > 25100 nM |  | 562 nM
32 | CCc1cc(C(=O)N2CCCCCC2C)nc2cc(-c3ccc(C4CC4C(=O)O)cc3F)nn12 (stereo not drawn) [Compound O1] | > 25100 nM |  | 123 nM
33 | CCc1cc(C(=O)N2CCCCCC2C)nc2cc(C3CCCCC3)nn12 (stereo not drawn) [Compound A5] | 33100 nM |  | 4790 nM
34 | CCc1cc(C(=O)N2CCCCCC2C)nc2cc(-c3ccc(-c4cn[nH]c4)cc3F)nn12 (stereo not drawn) [Compound F6] | > 25100 nM |  | 355 nM
35 | CCc1cc(C(=O)N2CCn3cccc3[C@H]2C)nc2cc(-c3ccc([C@H]4C[C@@H]4C(=O)O)cc3F)nn12 (relative stereo) [Compound O19] | 91200 nM |  | 30.9 nM
36 | CCc1cc(C(=O)N2CCCCC[C@H]2C)nc2cc(-c3ccc([C@H]4CC[C@H](C(=O)O)CC4)cc3F)nn12 [Compound F37] | 38000 nM |  | 182 nM
37 | C[C@@H]1CCCCCN1C(=O)c1cc(C2CCC2)n2nc(-c3ccc(N4CC[C@H](C(=O)O)C4)cc3F)cc2n1 [Compound W31] | 49000 nM |  | 12.6 nM
38 | CCc1cc(C(=O)N2CCc3ccccc3[C@H]2C)nc2cc(-c3ccc(-c4ccc(C(=O)O)cn4)cc3F)nn12 [Compound F23] | > 25100 nM |  | 40.7 nM
